Values quoted from earlier work in patent US11925179B2, “Glyphosate formulations containing amidoalkylamine surfactants” (Monsanto Technology LLC, priority 2008, dated 2024).

Details: glyphosate in its acid form, 25° C.

For `O=C(O)CNCP(=O)(O)O` [glyphosate, N-phosphonomethylglycine], the solubility in water is given as 1.16 % by weight.
